Data published in patent US11364209B2, “Methods and compositions for treating atopic dermatitis” (Golden Biotechnology Corporation, priority 2016, dated 2022).

How the values were obtained:
[1] = Outside-in animal model (OVA-sensitized mice): body weight and clinical signs; assay type: in vivo; conditions: oral doses
Method: BALC/c female rat in 6-8-week old is used. Each group has 6-8 rats. Blood sample was taken from the cheek of rat before sensitization. On day 1 and day 8, mice were injected intraperitoneally with 50 μg/mice of OVA-aluminum hydroxide (1:1 v/v). The mice were epicutaneously sensitized with OVA patches on day 15. OVA (100 μg) prepared in PBS was contained in a 2×2-cm patch of sterile gauze that was placed on the shaved backs of mice and secured to the skin with 3 M Tegader film followed by 3 M Coban tape to secure the gauze. After 3 days, the gauze was removed and reapplied. The procedure was repeated three times. Day 27, all the mice in the study was sacrificed and examined.
days 1 and 8 were injected OVA (sensitization), day 15 applied OVA gauze for 3 days (challenge) and rested one day. The application of OVA gauze procedure was repeated 3 times. Starting on day 14, the mice in the group were fed water.
Same procedure as group O except the mice were fed low dose (5 mg/kg BW) of exemplary compound 1.
Same procedure as group O except the mice were fed medium dose (15 mg/kg BW) of exemplary compound 1.
Same procedure as group O except the mice were fed high dose (45 mg/kg BW) of exemplary compound 1.

[2] = Metabolite obtained from urine of rats fed with Compound 1; assay type: in vivo; conditions: urine samples of rats fed with Compound 1
Method: Compound 27 was determined to be 4-hydroxy-2,3-dimethoxy-6-methyl-5-(3-methyl-2-hexenoic acid)cyclohex-2-enone with molecular weight of 312 (C16 H24O6). Compound 25 which was determined as 2,3-dimethoxy-5-methyl-6-((2E,6E)-3,7,11-trimethyldodeca-2,6,10-trienyl)cyclohexa-2,5-diene-1,4-dione (molecular weight of 386.52, C24 H34 O4), was obtained from the purification process.

[3] = all treatment groups, through the study period

SMILES: COC1=C(OC)C(O)C(C/C=C(\C)CC/C=C(\C)CCC=C(C)C)C(C)C1=O (stereo not shown) [Compound 1, 4-hydroxy-2,3-dimethoxy-6-methyl-5-(3,7,11-trimethyldodeca-2,6,10-trienyl)cyclohex-2-enone]
- body weight change between all treatment groups ([1]; FIG. 1): no significant difference
- loss in body weight [1, 3]: did not lead to any loss in body weight
- observed clinical signs [1, 3]: did not lead to any loss in body weight or any observed clinical signs

SMILES: COC1=C(OC)C(O)C(C/C=C(\C)CCC(=O)O)C(C)C1=O (stereo not shown) [Compound 27]
- metabolite found in urine [2]: a metabolite of compound 1
